Results as given in ChEMBL document CHEMBL1152560, “Substituted 2-arylbenzothiazoles as kinase inhibitors: hit-to-lead optimization” (Bioorg Med Chem, 2009).

Key:
[1] = molecular target: Focal adhesion kinase 1 (Homo sapiens) (UniProt Q05397); assay: Residual activity of FAK at 1 uM by microplate scintillation counting
[2] = molecular target: Protein kinase C gamma type (Homo sapiens) (UniProt P05129); assay: Residual activity of PKCgamma at 1 uM by microplate scintillation counting
[3] = molecular target: T1, Inhibitor of nuclear factor kappa-B kinase subunit epsilon (Homo sapiens) (UniProt Q14164); assay: Residual activity of IKKepsilon at 0.1 uM by microplate scintillation counting
T1 sequence (whole entry): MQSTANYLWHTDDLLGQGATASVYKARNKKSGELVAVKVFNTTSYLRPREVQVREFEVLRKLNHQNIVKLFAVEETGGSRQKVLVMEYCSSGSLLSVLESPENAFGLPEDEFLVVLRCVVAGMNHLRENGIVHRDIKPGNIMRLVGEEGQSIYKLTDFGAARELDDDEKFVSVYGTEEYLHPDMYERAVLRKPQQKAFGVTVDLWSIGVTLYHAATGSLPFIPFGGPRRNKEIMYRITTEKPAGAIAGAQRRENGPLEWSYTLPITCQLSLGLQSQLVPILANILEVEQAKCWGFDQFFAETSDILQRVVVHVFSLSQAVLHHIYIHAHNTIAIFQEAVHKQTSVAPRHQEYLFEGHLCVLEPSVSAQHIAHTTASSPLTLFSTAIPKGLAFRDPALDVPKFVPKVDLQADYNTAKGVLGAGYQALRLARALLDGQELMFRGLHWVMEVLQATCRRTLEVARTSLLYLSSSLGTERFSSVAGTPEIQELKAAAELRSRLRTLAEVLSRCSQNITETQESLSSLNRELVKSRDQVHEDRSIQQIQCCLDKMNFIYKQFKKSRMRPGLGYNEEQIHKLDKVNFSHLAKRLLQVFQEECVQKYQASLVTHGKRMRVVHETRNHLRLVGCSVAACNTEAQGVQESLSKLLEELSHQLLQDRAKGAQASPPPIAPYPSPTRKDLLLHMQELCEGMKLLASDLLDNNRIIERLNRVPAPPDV

[4] = molecular target: T2, Tyrosine-protein kinase JAK3 (Homo sapiens) (UniProt P52333); assay: Residual activity of JAK3 at 0.1 uM by microplate scintillation counting
T2 sequence (whole entry): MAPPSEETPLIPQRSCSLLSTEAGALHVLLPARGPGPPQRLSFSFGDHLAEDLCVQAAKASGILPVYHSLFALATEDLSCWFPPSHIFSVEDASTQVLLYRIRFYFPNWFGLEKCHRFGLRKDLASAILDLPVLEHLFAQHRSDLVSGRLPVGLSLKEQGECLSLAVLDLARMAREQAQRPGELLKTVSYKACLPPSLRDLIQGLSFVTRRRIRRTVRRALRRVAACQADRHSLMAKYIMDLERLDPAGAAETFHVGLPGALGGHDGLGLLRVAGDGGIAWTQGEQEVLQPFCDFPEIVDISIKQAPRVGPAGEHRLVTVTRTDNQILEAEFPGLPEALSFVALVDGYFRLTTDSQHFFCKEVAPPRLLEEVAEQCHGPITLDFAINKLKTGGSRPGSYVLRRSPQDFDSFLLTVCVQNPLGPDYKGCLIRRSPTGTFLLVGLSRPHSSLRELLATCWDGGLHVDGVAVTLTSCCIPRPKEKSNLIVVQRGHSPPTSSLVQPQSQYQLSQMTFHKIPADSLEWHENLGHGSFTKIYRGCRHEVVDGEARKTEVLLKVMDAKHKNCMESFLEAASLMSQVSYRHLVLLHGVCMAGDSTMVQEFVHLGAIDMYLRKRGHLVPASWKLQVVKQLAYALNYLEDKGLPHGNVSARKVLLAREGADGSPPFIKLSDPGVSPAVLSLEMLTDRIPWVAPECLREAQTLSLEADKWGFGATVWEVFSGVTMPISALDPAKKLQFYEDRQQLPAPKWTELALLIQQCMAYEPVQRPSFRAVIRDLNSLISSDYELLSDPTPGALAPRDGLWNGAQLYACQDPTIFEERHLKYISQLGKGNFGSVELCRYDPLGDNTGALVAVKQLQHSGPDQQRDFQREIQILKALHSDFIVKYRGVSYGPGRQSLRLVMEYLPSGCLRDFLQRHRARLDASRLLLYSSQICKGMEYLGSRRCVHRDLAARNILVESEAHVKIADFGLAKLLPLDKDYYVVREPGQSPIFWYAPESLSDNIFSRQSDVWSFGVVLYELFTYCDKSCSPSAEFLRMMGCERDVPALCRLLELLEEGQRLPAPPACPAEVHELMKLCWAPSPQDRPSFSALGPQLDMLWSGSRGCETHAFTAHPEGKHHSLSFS

[5] = molecular target: Serine/threonine-protein kinase MARK2 (Homo sapiens) (UniProt Q7KZI7); assay: Residual activity of MARK2 at 0.1 uM by microplate scintillation counting
[6] = molecular target: Ribosomal protein S6 kinase alpha-2 (Homo sapiens) (UniProt Q15349); assay: Residual activity of RPS6KA2 at 1 uM by microplate scintillation counting
[7] = molecular target: Tyrosine-protein kinase Fer (Homo sapiens) (UniProt P16591); assay: Residual activity of FER at 10 uM by microplate scintillation counting
[8] = molecular target: T3, Protein kinase C iota type (Homo sapiens) (UniProt P41743); assay: Residual activity of PKCiota at 10 uM by microplate scintillation counting
T3 sequence (whole entry): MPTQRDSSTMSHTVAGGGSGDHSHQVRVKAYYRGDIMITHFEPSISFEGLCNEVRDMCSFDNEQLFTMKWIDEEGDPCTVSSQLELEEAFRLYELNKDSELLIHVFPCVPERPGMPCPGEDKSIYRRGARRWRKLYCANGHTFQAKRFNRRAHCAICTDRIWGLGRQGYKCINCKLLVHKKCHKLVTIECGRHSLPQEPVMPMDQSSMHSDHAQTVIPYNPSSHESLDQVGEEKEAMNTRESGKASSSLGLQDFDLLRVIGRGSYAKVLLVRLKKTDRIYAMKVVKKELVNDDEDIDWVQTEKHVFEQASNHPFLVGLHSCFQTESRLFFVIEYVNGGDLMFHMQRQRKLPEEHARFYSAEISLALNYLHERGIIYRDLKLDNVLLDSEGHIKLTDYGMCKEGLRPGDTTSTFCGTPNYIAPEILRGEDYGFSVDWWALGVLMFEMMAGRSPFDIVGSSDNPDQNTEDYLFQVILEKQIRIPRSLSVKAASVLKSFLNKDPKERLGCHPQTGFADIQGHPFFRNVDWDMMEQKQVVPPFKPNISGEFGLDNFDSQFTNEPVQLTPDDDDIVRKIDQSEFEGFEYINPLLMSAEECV

[9] = molecular target: CDK1/Cyclin E (Homo sapiens) (UniProt P06493+P24864); assay: Residual activity of CDK1/Cyclin E at 1 uM by microplate scintillation counting; type: protein-complex assay
[10] = molecular target: Mitogen-activated protein kinase 11 (Homo sapiens) (UniProt Q15759); assay: Residual activity of p38beta at 0.1 uM by microplate scintillation counting
[11] = molecular target: Serine/threonine-protein kinase PLK2 (Homo sapiens) (UniProt Q9NYY3); assay: Residual activity of SNK at 0.1 uM by microplate scintillation counting
Sequence of Serine/threonine-protein kinase PLK2 (Homo sapiens) (Q9NYY3 whole entry, looked up): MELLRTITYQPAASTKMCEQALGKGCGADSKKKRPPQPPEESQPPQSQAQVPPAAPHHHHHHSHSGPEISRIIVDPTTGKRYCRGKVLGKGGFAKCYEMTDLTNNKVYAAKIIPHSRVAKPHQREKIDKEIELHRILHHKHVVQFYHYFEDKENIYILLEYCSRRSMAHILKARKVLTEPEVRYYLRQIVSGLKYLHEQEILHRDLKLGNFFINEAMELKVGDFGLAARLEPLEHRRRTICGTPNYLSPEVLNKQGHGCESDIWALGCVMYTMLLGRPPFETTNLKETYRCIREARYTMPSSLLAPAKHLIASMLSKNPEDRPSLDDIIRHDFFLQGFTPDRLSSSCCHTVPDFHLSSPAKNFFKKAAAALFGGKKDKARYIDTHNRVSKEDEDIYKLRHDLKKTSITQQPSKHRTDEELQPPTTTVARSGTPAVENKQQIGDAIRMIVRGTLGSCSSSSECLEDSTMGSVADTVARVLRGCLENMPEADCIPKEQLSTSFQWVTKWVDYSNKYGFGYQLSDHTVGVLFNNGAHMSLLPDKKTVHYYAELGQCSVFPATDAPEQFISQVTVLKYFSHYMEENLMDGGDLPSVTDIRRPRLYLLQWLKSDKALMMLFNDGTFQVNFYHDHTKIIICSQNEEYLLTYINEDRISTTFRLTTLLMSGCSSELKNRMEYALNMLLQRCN

Sequence of Ribosomal protein S6 kinase alpha-2 (Homo sapiens) (Q15349 whole entry): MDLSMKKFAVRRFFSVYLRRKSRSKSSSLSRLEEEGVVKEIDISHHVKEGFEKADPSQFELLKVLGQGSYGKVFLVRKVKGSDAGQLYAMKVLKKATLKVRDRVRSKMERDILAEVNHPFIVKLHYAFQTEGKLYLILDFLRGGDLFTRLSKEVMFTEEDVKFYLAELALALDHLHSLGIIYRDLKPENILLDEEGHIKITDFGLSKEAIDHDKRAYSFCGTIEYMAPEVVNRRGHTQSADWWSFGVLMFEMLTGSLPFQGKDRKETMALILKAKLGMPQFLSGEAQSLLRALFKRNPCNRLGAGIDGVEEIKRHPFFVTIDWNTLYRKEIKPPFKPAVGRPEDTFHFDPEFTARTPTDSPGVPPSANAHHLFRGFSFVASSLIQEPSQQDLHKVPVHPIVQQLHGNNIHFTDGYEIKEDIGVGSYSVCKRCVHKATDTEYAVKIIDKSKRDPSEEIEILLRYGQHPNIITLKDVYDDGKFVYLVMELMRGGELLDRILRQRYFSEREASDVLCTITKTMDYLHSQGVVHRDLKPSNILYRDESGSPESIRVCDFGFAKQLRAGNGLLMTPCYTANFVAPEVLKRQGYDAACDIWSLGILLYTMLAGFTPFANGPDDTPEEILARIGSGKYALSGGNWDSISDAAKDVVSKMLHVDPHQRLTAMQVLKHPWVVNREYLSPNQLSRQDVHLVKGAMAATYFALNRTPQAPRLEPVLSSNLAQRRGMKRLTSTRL
Sequence of Serine/threonine-protein kinase MARK2 (Homo sapiens) (Q7KZI7 whole entry): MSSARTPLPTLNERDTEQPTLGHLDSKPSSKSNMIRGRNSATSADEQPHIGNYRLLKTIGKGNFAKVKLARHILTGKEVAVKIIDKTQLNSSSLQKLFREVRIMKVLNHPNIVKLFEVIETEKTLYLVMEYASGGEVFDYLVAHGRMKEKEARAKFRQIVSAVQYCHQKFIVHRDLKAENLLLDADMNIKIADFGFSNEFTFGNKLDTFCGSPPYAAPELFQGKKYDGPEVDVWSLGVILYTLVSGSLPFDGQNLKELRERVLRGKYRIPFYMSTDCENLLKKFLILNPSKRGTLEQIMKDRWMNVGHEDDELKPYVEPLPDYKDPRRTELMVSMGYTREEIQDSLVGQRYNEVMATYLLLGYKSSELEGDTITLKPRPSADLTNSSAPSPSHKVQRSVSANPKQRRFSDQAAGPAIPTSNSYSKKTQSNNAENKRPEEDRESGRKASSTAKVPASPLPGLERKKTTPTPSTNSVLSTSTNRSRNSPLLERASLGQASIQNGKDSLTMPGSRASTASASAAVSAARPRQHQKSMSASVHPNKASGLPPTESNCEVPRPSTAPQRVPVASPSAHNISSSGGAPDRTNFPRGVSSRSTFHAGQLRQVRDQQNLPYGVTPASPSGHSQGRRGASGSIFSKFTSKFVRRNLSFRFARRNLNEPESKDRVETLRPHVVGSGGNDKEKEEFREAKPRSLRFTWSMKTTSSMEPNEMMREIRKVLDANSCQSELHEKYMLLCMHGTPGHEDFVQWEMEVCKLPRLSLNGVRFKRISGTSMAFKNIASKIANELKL
Sequence of Focal adhesion kinase 1 (Homo sapiens) (Q05397 2-1052 limits assumed): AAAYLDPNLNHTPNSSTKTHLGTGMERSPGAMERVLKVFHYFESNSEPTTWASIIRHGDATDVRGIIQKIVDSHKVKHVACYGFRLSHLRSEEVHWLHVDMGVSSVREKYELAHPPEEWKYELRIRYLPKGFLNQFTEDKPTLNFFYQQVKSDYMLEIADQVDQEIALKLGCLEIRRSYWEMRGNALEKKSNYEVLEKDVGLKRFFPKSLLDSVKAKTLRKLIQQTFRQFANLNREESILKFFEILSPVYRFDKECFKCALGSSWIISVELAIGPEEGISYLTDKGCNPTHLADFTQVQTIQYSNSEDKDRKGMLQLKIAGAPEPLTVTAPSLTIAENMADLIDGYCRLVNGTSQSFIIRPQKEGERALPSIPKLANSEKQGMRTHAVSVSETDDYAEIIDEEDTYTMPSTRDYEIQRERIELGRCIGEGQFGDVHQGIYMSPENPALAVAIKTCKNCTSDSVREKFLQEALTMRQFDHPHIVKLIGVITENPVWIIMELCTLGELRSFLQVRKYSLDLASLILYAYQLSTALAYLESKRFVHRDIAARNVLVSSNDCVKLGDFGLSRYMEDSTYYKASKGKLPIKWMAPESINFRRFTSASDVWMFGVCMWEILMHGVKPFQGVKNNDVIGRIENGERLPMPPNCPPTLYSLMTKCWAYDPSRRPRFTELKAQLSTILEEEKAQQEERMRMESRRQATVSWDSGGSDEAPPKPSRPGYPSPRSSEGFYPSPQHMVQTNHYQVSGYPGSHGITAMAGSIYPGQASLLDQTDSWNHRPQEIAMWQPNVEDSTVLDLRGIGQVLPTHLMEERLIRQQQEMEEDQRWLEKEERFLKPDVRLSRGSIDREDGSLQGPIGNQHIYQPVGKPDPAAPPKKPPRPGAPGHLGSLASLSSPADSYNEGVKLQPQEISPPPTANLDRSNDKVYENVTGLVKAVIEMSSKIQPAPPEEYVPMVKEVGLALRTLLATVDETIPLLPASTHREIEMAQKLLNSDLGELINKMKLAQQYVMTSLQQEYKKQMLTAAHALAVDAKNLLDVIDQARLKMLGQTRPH
Sequence of Mitogen-activated protein kinase 11 (Homo sapiens) (Q15759 whole entry): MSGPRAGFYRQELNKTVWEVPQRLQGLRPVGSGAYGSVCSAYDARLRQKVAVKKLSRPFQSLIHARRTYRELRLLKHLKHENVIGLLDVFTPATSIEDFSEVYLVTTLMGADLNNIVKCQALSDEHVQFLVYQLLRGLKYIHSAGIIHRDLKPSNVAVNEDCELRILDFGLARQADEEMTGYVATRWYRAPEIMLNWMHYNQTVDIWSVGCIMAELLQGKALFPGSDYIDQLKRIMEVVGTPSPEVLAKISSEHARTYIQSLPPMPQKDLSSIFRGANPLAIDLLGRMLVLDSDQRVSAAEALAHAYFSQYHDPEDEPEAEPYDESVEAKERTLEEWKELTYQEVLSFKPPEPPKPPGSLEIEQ
Sequence of CDK1/Cyclin E (Homo sapiens) (P06493 whole entry, looked up): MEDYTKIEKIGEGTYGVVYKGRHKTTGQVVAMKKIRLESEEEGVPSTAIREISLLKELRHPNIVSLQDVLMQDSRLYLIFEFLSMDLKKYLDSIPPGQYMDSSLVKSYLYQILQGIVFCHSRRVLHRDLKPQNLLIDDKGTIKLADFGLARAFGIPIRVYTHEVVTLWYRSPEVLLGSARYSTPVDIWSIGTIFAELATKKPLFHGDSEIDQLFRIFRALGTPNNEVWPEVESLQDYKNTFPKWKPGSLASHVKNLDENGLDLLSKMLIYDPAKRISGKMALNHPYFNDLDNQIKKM
Sequence of CDK1/Cyclin E (Homo sapiens) (P24864 whole entry, looked up): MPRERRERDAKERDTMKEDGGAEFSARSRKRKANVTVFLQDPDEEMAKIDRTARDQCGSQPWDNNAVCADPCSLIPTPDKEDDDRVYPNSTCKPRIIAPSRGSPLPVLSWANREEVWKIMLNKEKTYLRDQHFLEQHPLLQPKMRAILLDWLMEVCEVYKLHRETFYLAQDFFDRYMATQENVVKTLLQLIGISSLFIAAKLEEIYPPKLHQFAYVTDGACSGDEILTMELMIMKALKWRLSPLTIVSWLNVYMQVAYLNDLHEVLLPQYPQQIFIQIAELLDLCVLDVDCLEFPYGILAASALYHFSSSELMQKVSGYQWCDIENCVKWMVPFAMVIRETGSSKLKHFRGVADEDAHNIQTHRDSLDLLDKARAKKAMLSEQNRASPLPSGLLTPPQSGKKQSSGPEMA

SMILES | residual activity [1] [%] | residual activity [2] [%] | residual activity [3] [%] | residual activity [4] [%] | residual activity [5] [%] | residual activity [6] [%] | residual activity [7] [%] | residual activity [8] [%] | residual activity [9] [%] | residual activity [10] [%] | residual activity [11] [%]
COc1cc2c(Oc3ccc(-c4nc5ccccc5s4)cc3)ncnc2cc1OCCCN1CCN(C)CC1 | 93 | 117 | 91 | 95 | 82 | 88 | 79 | 44 | 88 | 90 | 89
COc1cc2c(Oc3ccc(-c4nc5ccccc5s4)cc3)ncnc2cc1OCCCN1CCCC1 | 98 | 102 | 92 | 98 | 90 | 99 | 73 | 51 | 85 | 104 | 108
COc1cc2c(Oc3ccc(-c4nc5ccccc5s4)cc3F)ncnc2cc1OCCCN1CCN(C)CC1 | 104 | 117 | 87 | 90 | 87 | 99 | 16 | 46 | 90 | 105 | 89
